Data from patent US11401253B2, “16-methyl-oxacyclohexadecan-2-one and 16-methyl-azacyclohexadecan-2-one derivatives as antimicrobial agents” (THE UNIVERSITY OF MONTANA, priority 2017, dated 2022).
Converted amounts (≈) assume the structure as drawn. Where two headings read alike, the source gives them in different places.

Key:
[1] = system: non-replicating persistence Mycobacterium tuberculosis (NRP-TB); assay: Low oxygen recovery assay (LORA), non-replicating persistence Mtb; assay type: cell-based; conditions: Mycobacterium tuberculosis, read-out: MIC, LORA
[2] = system: Mycobacterium tuberculosis; assay: microbe, parasite or virus in culture; conditions: read-out: MIC, MABA
[3] = system: Staphylococcus aureus (13709); assay: Antibiotic testing (MIC), S. aureus 13709; assay type: cell-based; conditions: growth inhibition ≥90% relative to drug-free controls, read-out: minimum inhibitory concentration, Staphylococcus aureus (13709)
Streptococcus pyogenes = assay: Antibiotic testing (MIC), Streptococcus pyogenes; assay type: cell-based; conditions: growth inhibition ≥90%, read-out: minimum inhibitory concentration, Streptococcus pyogenes
Candida glabrata = assay: Antibiotic testing (MIC), Candida glabrata; assay type: cell-based; conditions: Nakaseomyces glabratus; growth inhibition ≥90%; read-out: minimum inhibitory concentration, Candida glabrata
Bacillus subtilis = assay: Antibiotic testing (MIC), Bacillus subtilis; assay type: cell-based; conditions: growth inhibition ≥90%, read-out: minimum inhibitory concentration, Bacillus subtilis
C. albicans = assay: Antibiotic testing (MIC), C. albicans; assay type: cell-based; conditions: Candida albicans; growth inhibition ≥90%; read-out: minimum inhibitory concentration, C. albicans
B. anthracis = assay: microbe, parasite or virus in culture; assay type: cell-based; conditions: Bacillus anthracis, read-out: minimum inhibitory concentration, B. anthracis
S. aureus CAIRD116 = assay: Antibiotic testing, methicillin-resistant S. aureus CAIRD116; assay type: cell-based; conditions: methicillin-resistant strain
Source text: (§1) Both the methyl ester and the diacetate derivatives of BPL 76 slightly less but still very strong activity against the same four MRSA strains (Table 11). The activities of compounds BPL 76 and BPL 81 were compared to several known antibiotics against three methicillin-resistant strains of S. aureus [FIG. 6, comparative data provided by Hartford Hospital, Center for Anti-Infective Research and Development (CAIRD)].

S. aureus CAIRD142 = assay: Antibiotic testing, methicillin-resistant S. aureus CAIRD142; assay type: cell-based; conditions: methicillin-resistant strain
Source text: as §1

S. aureus CAIRD148 = assay: Antibiotic testing, methicillin-resistant S. aureus CAIRD148; assay type: cell-based; conditions: methicillin-resistant strain
Source text: as §1

S. aureus (NE277) = assay: Antibiotic testing, methicillin-resistant S. aureus NE277; assay type: cell-based
Source text: as §1

K. pneumoniae (10031) = assay: Antibiotic testing (MIC), gram negative K. pneumoniae; assay type: cell-based; conditions: Klebsiella pneumoniae; read-out: MIC, K. pneumoniae (10031)
Experimental: (§2) None of this collection of compounds were active against Gram-negative bacteria
(§3) Additionally, BPL 76 and derivatives were tested against a panel of gram negative bacteria including K. pneumonia, P. aeruginosa and E. coli (Table 12).

P. aeruginosa = assay: Antibiotic testing (MIC), gram negative P. aeruginosa; assay type: cell-based; conditions: Pseudomonas aeruginosa; read-out: MIC, P. aeruginosa
Experimental: as §2, §3

E. coli (25922) = assay: Antibiotic testing (MIC), gram negative E. coli; assay type: cell-based; conditions: Escherichia coli; read-out: MIC, E. coli (25922)
Experimental: as §2, §3

Vero cell = assay: Cytotoxicity (MTS), Vero cells; assay type: cell-based, monkey; conditions: Primates, 72 hours exposure
HepG2 = assay: Cytotoxicity (MTS), HepG2 cells; assay type: cell-based; conditions: Homo sapiens, 72 hours exposure
J774 = assay: Cytotoxicity (MTS), J774 cells; assay type: cell-based, murine; conditions: Mus musculus, 72 hours exposure
[4] = system: Mycobacterium tuberculosis; conditions: normal (replicating) conditions; known antibiotics
[5] = non-replicating persistence conditions, known antibiotics
[6] = non-replicating persistence, hypoxic conditions

`O=[N+]([O-])c1cn2c(n1)OC[C@@H](OCc1ccc(OC(F)(F)F)cc1)C2` [PA824, reference compound] was tested, and the MIC [1, 5] was 7 µM and the MIC [2] was 0.2 µM.
`C[C@@H]1CCCCCCCCC[C@H](OC(=O)CCC(=O)O)C(=O)/C=C/C(=O)O1` [BPL 81, 4-(((6S,16R,E)-16-methyl-2,5-dioxooxacyclohexadec-3-en-6-yl)oxy)-4-oxobutanoic acid] was tested, and the MIC [3] was 3 µg/mL (≈ 7.84 µM), the MIC (Streptococcus pyogenes) was 48 µg/mL (≈ 126 µM) and the MIC (Candida glabrata) was 48 µg/mL (≈ 126 µM). It also gave an MIC (Bacillus subtilis) of 12 µg/mL (≈ 31.4 µM), an MIC (C. albicans) of 96 µg/mL (≈ 251 µM) and an MIC (B. anthracis) of 6 µg/mL (≈ 15.7 µM). For the same compound, the MIC (S. aureus CAIRD116; Staphylococcus aureus, CAIRD116) was 6 µg/mL (≈ 15.7 µM), the “antibiotic testing data (MIC), S. aureus CAIRD116” value (S. aureus CAIRD116) was 16 µM and the MIC (S. aureus CAIRD142; Staphylococcus aureus, CAIRD142) was 6 µg/mL (≈ 15.7 µM). The “antibiotic testing data (MIC), S. aureus CAIRD142” value (S. aureus CAIRD142) was 16 µM, the MIC (S. aureus CAIRD148; Staphylococcus aureus, CAIRD148) was 6 µg/mL (≈ 15.7 µM) and the “antibiotic testing data (MIC), S. aureus CAIRD148” value (S. aureus CAIRD148) was 16 µM. For the same compound, the MIC (S. aureus (NE277); Staphylococcus aureus, read-out: antibiotic testing data (MIC), S. aureus (NE277)) was 6 µg/mL (≈ 15.7 µM), the “antibiotic testing data (MIC), S. aureus (NE277)” value (S. aureus (NE277); methicillin-resistant strain) was 16 µM and the MIC (K. pneumoniae (10031)) was over 250 µM. For the same compound, the MIC (P. aeruginosa) was over 250 µM, the MIC (E. coli (25922)) was over 250 µM and the MIC [1, 6] was over 100 µg/mL. The IC50 (Vero cell) was 55.7 µg/mL (≈ 146 µM), the IC50 (HepG2) was over 100 µg/mL and the IC50 (J774) was 37.2 µg/mL (≈ 97.3 µM). It also gave an MIC [2] of 47 µg/mL.
For `NNC(=O)c1ccncc1` [INH - Isoniazid, Isoniazid, reference compound], the MIC [1, 5] was over 128 µM and the MIC [2] was 0.5 µM.
With `C[C@@H]1CCCCCCCCCC[C@H](O)/C=C/C(=O)O1` [BPL 94, (5S,16R,E)-5-hydroxy-16-methyloxacyclohexadec-3-en-2-one] the MIC [3] was 34 µg/mL (≈ 127 µM), the MIC (Streptococcus pyogenes) was 67 µg/mL (≈ 250 µM) and the MIC (Candida glabrata) was over 67 µg/mL. The MIC (Bacillus subtilis) was 34 µg/mL (≈ 127 µM), the MIC (C. albicans) was over 67 µg/mL and the MIC (B. anthracis) was 34 µg/mL (≈ 127 µM). It also gave an MIC [1, 6] of 20 µg/mL, an IC50 (Vero cell) of 43.8 µg/mL (≈ 163 µM) and an IC50 (HepG2) of 85.2 µg/mL (≈ 317 µM). For the same compound, the IC50 (J774) was 40.7 µg/mL (≈ 152 µM) and the MIC [2] was 39 µg/mL.
With `C[C@H]1OC(=O)/C=C/[C@@H](O)[C@@H](O)CCCCCCCC[C@@H]1O` [BPL 79, (5R,6S,15 S,16R,E)-5,6,15-trihydroxy-16-methyloxacyclohexadec-3-en-2-one] the MIC [3] was 19 µg/mL (≈ 63.3 µM), the MIC (Streptococcus pyogenes) was 150 µg/mL (≈ 499 µM) and the MIC (Candida glabrata) was over 300 µg/mL. It also gave an MIC (Bacillus subtilis) of over 300 µg/mL, an MIC (C. albicans) of over 300 µg/mL and an MIC (B. anthracis) of 75 µg/mL (≈ 250 µM). For the same compound, the MIC (K. pneumoniae (10031)) was over 1000 µM, the MIC (P. aeruginosa) was over 1000 µM and the MIC (E. coli (25922)) was over 1000 µM.
In the case of `CC(=O)O[C@H]1CCCCCCCC[C@H](OC(C)=O)[C@H](OC(C)=O)/C=C/C(=O)O[C@@H]1C` [BPL 79 Ac, (2R,3S,12S,13R,E)-2-methyl-16-oxooxacyclohexadec-14-ene-3,12,13-triyl triacetate], the MIC (K. pneumoniae (10031)) was over 500 µM, the MIC (P. aeruginosa) was over 500 µM and the MIC (E. coli (25922)) was over 500 µM.
In the case of `C[C@@H]1CCCCCCCCC[C@H](O)[C@H](OC(=O)CCC(=O)O)/C=C/C(=O)O1` [BPL 96, 4-(((5R,6S,16R,E)-6-hydroxy-16-methyl-2-oxooxacyclohexadec-3-en-5-yl)oxy)-4-oxobutanoic acid], the MIC [3] was 48 µg/mL (≈ 125 µM), the MIC (Streptococcus pyogenes) was over 96 µg/mL and the MIC (Candida glabrata) was over 96 µg/mL. The MIC (Bacillus subtilis) was 48 µg/mL (≈ 125 µM), the MIC (C. albicans) was over 96 µg/mL and the MIC (B. anthracis) was over 96 µg/mL.
`COc1c(N2C[C@@H]3CCCN[C@@H]3C2)c(F)cc2c(=O)c(C(=O)O)cn(C3CC3)c12` [MOX - Moxifloxicin, Moxifloxicin, reference compound] was tested, and the “MIC, MABA” value [4] was 0.2 µM (≈ 0.0803 µg/mL).
In the case of `CO[C@H]1/C=C/O[C@@]2(C)Oc3c(C)c(O)c4c(O)c(c(/C=N/N5CCN(C)CC5)c(O)c4c3C2=O)NC(=O)/C(C)=C\C=C\[C@H](C)[C@H](O)[C@@H](C)[C@@H](O)[C@@H](C)[C@H](OC(C)=O)[C@@H]1C` [RMP - Rifampicin, Rifampicin, reference compound], the MIC [1] was 0.4 µM, the IC50 (Vero cell) was over 100 µg/mL and the IC50 (HepG2) was over 100 µg/mL. For the same compound, the IC50 (J774) was 95.8 µg/mL (≈ 116 µM) and the MIC [2] was over 0.1 µM.
